Experimental data taken from ChEMBL document CHEMBL1153484, “Design, synthesis and evaluation of N-[(3S)-pyrrolidin-3-yl]benzamides as selective noradrenaline reuptake inhibitors: CNS penetration in a more polar template” (Bioorg Med Chem Lett, 2009).

Key:
[1] = Intrinsic clearance in human liver microsomes; format: ADME, Microsome
[2] = target: Sodium-dependent dopamine transporter (Homo sapiens, UniProt Q01959); assay: Displacement of radioligand from human recombinant DAT expressed in HEK293 cells by scintillation proximity assay; format: cell-based
[3] = target: Sodium-dependent serotonin transporter (Homo sapiens, UniProt P31645); assay: Displacement of [3H]citalopram from human recombinant SERT expressed in HEK293 cells by scintillation proximity assay; format: cell-based
[4] = target: Sodium-dependent noradrenaline transporter (Homo sapiens, UniProt P23975); assay: Displacement of [3H]nisoxetine from human recombinant NET expressed in HEK293 cells by scintillation proximity assay; format: cell-based
[5] = target: Voltage-gated inwardly rectifying potassium channel KCNH2 (Homo sapiens, UniProt Q12809); assay: Displacement of [3H]dofetilide from human ERG
Cytochrome P450 2D6 = Cytochrome P450 2D6 (Homo sapiens, UniProt P10635); assay: Inhibition of CYP2D6; format: ADME
Chain of Cytochrome P450 2D6 (P10635 whole entry): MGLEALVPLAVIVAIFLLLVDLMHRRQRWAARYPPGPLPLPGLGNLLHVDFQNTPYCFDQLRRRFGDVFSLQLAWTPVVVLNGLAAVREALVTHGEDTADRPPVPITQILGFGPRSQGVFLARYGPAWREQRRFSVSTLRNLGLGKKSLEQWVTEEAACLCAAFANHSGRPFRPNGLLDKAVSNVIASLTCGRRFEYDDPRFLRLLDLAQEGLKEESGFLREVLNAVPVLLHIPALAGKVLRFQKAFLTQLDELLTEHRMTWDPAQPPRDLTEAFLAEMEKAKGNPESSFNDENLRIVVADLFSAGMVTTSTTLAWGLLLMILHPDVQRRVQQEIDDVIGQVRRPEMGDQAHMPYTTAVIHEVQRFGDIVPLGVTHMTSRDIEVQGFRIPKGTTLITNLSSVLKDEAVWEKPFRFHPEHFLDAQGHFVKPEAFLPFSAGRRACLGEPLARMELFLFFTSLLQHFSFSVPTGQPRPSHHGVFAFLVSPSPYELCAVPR

Chain of Sodium-dependent dopamine transporter (Q01959 whole entry): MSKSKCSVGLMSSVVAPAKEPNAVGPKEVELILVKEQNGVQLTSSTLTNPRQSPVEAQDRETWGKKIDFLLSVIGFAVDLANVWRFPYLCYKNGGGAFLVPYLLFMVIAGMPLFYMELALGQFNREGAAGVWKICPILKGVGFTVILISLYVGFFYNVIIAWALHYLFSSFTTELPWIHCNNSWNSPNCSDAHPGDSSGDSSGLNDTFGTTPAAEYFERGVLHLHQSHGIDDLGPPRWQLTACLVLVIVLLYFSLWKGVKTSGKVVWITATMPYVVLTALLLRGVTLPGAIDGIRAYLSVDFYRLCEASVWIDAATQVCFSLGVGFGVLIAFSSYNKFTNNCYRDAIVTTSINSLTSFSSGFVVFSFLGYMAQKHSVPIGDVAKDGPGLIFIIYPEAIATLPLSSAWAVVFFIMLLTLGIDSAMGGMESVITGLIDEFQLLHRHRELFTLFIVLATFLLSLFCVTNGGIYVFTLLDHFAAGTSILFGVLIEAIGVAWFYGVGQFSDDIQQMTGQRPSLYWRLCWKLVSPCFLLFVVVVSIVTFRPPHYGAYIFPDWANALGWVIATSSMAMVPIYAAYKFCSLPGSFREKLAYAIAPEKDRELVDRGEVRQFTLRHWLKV
Chain of Sodium-dependent serotonin transporter (P31645 whole entry): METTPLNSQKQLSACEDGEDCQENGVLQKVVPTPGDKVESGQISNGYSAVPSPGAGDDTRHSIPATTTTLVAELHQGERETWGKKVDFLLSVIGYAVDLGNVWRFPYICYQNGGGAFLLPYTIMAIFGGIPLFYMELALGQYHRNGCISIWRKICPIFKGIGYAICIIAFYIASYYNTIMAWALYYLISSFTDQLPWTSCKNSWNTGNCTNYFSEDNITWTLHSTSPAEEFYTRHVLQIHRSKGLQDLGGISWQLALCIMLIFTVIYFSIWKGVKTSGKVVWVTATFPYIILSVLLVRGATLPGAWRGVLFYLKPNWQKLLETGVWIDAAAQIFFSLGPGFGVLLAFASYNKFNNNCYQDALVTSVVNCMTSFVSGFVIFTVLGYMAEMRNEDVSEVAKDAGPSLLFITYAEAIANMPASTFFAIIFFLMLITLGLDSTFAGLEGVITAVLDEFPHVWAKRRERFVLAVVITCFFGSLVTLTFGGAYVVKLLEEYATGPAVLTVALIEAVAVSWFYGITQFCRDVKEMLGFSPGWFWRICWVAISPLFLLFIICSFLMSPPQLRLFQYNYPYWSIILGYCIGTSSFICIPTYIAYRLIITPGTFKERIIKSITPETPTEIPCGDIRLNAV
Chain of Voltage-gated inwardly rectifying potassium channel KCNH2 (Q12809 whole entry): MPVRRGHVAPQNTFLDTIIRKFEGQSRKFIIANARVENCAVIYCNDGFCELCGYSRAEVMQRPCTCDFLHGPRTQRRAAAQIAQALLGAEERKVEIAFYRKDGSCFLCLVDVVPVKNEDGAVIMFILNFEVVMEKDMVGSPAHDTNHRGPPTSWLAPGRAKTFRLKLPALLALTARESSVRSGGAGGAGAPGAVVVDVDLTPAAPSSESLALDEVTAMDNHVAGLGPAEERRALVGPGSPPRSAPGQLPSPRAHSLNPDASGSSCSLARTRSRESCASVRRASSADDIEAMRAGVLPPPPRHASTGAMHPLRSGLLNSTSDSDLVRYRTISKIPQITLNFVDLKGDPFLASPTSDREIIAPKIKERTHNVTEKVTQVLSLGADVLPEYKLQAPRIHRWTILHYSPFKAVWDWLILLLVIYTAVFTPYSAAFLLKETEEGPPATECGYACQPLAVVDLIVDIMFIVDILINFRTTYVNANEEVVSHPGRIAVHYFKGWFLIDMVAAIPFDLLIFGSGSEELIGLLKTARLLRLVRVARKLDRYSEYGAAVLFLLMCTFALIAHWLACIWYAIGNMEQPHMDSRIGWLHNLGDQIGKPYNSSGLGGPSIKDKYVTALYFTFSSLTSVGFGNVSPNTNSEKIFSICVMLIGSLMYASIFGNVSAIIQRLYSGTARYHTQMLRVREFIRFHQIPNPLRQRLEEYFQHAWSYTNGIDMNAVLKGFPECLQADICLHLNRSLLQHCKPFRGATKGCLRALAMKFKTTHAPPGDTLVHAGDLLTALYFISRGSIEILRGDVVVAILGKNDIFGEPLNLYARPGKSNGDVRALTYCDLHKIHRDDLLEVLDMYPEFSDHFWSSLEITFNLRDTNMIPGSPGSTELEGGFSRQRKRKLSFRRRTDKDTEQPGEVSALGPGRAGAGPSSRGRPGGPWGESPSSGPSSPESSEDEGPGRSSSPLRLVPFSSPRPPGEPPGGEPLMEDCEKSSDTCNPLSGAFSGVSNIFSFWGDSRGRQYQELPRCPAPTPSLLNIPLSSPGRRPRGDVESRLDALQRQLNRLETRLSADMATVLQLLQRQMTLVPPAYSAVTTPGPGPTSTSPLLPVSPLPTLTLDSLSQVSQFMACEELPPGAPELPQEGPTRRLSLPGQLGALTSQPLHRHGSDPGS
Chain of Sodium-dependent noradrenaline transporter (P23975 whole entry): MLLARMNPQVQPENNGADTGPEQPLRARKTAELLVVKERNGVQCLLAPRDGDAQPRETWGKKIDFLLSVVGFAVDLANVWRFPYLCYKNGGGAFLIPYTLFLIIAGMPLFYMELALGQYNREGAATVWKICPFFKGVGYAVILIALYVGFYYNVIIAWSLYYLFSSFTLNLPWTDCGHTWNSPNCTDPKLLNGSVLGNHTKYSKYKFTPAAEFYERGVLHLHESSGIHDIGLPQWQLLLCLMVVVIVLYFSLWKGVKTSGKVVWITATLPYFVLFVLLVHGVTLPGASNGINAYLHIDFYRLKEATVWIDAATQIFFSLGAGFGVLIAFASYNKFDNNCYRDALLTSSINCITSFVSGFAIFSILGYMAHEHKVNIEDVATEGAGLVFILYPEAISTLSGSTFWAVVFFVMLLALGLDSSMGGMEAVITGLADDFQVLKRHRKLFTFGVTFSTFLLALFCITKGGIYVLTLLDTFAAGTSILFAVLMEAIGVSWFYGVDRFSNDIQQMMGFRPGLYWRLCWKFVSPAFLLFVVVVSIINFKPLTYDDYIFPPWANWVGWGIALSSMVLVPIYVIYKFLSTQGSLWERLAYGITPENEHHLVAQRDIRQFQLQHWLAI

| Structure (SMILES) | microsomal CLint [1] | Ki [2] | Ki [3] | Ki [4] | IC50 [5] | IC50 (Cytochrome P450 2D6) |
| --- | --- | --- | --- | --- | --- | --- |
| O=C(c1ccccc1Oc1ccccc1)N(c1ccccc1)[C@H]1CCNC1 | < 7 µL/min/mg | 4650 nM | 68 nM | – | – | – |
| CC(C)c1ccccc1C(=O)N(C1CCC1)[C@H]1CCNC1 | – | > 10000 nM | 776 nM | 43 nM | – | – |
| CC(C)c1ccccc1C(=O)N(CC1CC1)[C@H]1CCNC1 | – | > 10000 nM | 2870 nM | 31 nM | > 17600 nM | – |
| CNCc1cnc(C)cc1Oc1ccccc1Oc1ccccc1 | < 7 µL/min/mg | – | – | – | 11200 nM | – |
| CSc1ccccc1C(=O)N(CC1CCC1)[C@@H]1CCNC1 | – | 3470 nM | 1080 nM | 572 nM | – | – |
| O=C(c1ccccc1Cl)N(CC1CCC1)[C@H]1CCNC1 | – | 1360 nM | 39 nM | 19 nM | – | – |
| CC(C)c1ccccc1C(=O)N(CC1CCCC1)[C@H]1CCNC1 | – | 3470 nM | 330 nM | 18 nM | 2350 nM | – |
| O=C(c1ccccc1Oc1ccccc1)N(CC1CCC1)[C@@H]1CCNC1 | < 8 µL/min/mg | 4100 nM | 587 nM | 38 nM | – | – |
| CC(C)CN(C(=O)c1ccccc1Oc1ccccc1)[C@H]1CCNC1 | < 7 µL/min/mg | > 10000 nM | 160 nM | 8 nM | – | – |
| O=C(c1ccccc1Oc1ccccc1)N(CC1CCC1)[C@H]1CCNC1 | < 7 µL/min/mg | > 10000 nM | 151 nM | 7 nM | 760 nM | 65 nM |
| O=C(c1ccccc1C(F)(F)F)N(CC1CCCC1)[C@H]1CCNC1 | < 7 µL/min/mg | 2750 nM | 109 nM | 24 nM | > 13500 nM | – |
| CC(C)CN(C(=O)c1ccccc1-c1ccccc1)[C@H]1CCNC1 | – | > 10000 nM | 654 nM | 294 nM | 1440 nM | – |
| CCN(C(=O)c1ccccc1Oc1ccccc1)[C@H]1CCNC1 | < 7 µL/min/mg | 3570 nM | 1610 nM | 9 nM | 5030 nM | > 30000 nM |
| CC(C)N(C(=O)c1ccccc1C(F)(F)F)[C@H]1CCNC1 | – | > 10000 nM | 457 nM | 172 nM | > 20000 nM | – |
| CCOC(=O)N(Cc1ccccc1-c1ccccc1)[C@H]1CCNC1 | < 7 µL/min/mg | – | – | – | – | – |
| CCCN(C(=O)c1ccccc1C(C)C)[C@H]1CCNC1 | – | > 10000 nM | 5210 nM | 92 nM | – | – |
| O=C(c1ccccc1C(F)(F)F)N(CC1CC1)[C@H]1CCNC1 | – | > 10000 nM | 581 nM | 30 nM | > 20000 nM | – |
| CC(C)c1ccccc1C(=O)N(CC1CCC1)[C@@H]1CCNC1 | – | > 3160 nM | 1990 nM | 825 nM | – | – |
| O=C(c1ccccc1C1CCCC1)N(CC1CCC1)[C@H]1CCNC1 | 60 µL/min/mg | 3720 nM | 802 nM | 18 nM | – | – |

| Structure (SMILES) | microsomal CLint [1] | Ki [2] | Ki [3] | Ki [4] | IC50 [5] | IC50 (Cytochrome P450 2D6) |
| --- | --- | --- | --- | --- | --- | --- |
| CSc1ccccc1C(=O)N(C1CCC1)[C@H]1CCNC1 | < 7 µL/min/mg | > 10000 nM | 62 nM | 16 nM | > 20000 nM | > 30000 nM |
| O=C(C1CCC1)N(Cc1ccccc1C(F)(F)F)[C@H]1CCNC1 | < 7 µL/min/mg | > 10000 nM | 187 nM | 148 nM | – | – |
| CSc1ccccc1C(=O)N(C1CCCCC1)[C@H]1CCNC1 | – | 2950 nM | 16 nM | – | 2270 nM | – |
| CCSc1ccccc1C(=O)N(CC1CCC1)[C@H]1CCNC1 | 8 µL/min/mg | 3670 nM | 266 nM | 6 nM | 7570 nM | 480 nM |
| CCc1ccccc1C(=O)N(CC1CCC1)[C@H]1CCNC1 | – | 2680 nM | 237 nM | 29 nM | – | – |
| CCCN(C(=O)c1ccccc1SC)[C@H]1CCNC1 | – | 3110 nM | 1090 nM | 37 nM | > 20000 nM | – |
| Cc1ccccc1C(=O)N(CC1CCC1)[C@H]1CCNC1 | – | 2340 nM | 118 nM | 72 nM | > 20000 nM | – |
| CSc1ccccc1C(=O)N(c1ccccc1)[C@H]1CCNC1 | – | 3440 nM | 64 nM | 19 nM | > 20000 nM | – |
| CSc1ccccc1C(=O)N(C1CCCC1)[C@H]1CCNC1 | – | 4770 nM | 36 nM | 9 nM | > 18700 nM | – |
| O=C(c1ccccc1Oc1ccccc1)N(C1CCC1)[C@H]1CCNC1 | < 7 µL/min/mg | > 10000 nM | 222 nM | 13 nM | – | – |
| O=C(c1ccccc1C(F)(F)F)N(C1CCC1)[C@H]1CCNC1 | < 7 µL/min/mg | > 10000 nM | 210 nM | 60 nM | > 10000 nM | – |
| O=C(c1ccccc1C(F)(F)F)N(c1ccccc1)[C@H]1CCNC1 | < 7 µL/min/mg | 3130 nM | 113 nM | 28 nM | > 20000 nM | > 3000 nM |
| CC(C)c1ccccc1C(=O)N(CC1CCC1)[C@H]1CCNC1 | < 9 µL/min/mg | 2040 nM | 857 nM | 10 nM | > 18200 nM | 3170 nM |
| CC(C)C(=O)N(Cc1ccccc1-c1ccccc1)[C@H]1CCNC1 | – | – | – | – | 3020 nM | – |
| CSc1ccccc1C(=O)N(CC1CCC1)[C@H]1CCNC1 | < 7 µL/min/mg | 3040 nM | 179 nM | 8 nM | > 20000 nM | – |
| CN(C(=O)c1ccccc1Oc1ccccc1)[C@H]1CCNC1 | – | > 3160 nM | 661 nM | 61 nM | 9210 nM | – |
| CCOc1ccccc1C(=O)N(CC1CCC1)[C@H]1CCNC1 | < 7 µL/min/mg | 2650 nM | 348 nM | 22 nM | > 16800 nM | – |
| O=C(c1ccccc1C(F)(F)F)N(CC1CCC1)[C@@H]1CCNC1 | – | 3960 nM | 1650 nM | 1120 nM | – | – |
| CC(C)c1ccccc1C(=O)N(C1CCCC1)[C@H]1CCNC1 | – | > 10000 nM | 663 nM | 32 nM | – | – |
